Measured values: US8637472B2, “Optimized dengue virus entry inhibitory peptide (10AN)” (University of Washington Through Its Center for …, priority 2007, dated 2014)
Residues, ends and D or L forms follow the SMILES beside them.

Test system: LLCMK-2 cells
Assay: Cytotoxicity assay (TACS MTT, mitochondrial reductase activity)
Format: cell-based, African green monkey
Settings: confluent LLCMK-2 monolayers; concentration ranges that showed viral inhibition; compared to medium only controls
Protocol: The cytotoxicity of the chemistries was measured by monitoring mitochondrial reductase activity using the TACS™ MTT cell proliferation assay (R&D Systems, Inc., Minneapolis, Minn.) according to the manufacturer's instructions. Dilutions of chemistries in serum-free DMEM were added to confluent monolayers of LLCMK-2 cells in 96-well plates for 1 h at 37° C., similar to the focus forming inhibition assays, and subsequently incubated at 37° C. with 5% (v/v) CO2 for 24 h. Absorbance at 560 nm was measured using a Tecan GeniosPro plate reader (Tecan US, Durham, N.C.).

Q: Which “cytotoxicity (mitochondrial reductase activity of target cells)” value does the source give for `CC[C@H](C)[C@H](NC(=O)[C@H](CC(C)C)NC(=O)[C@@H](NC(=O)[C@H](Cc1ccccc1)NC(=O)[C@H](Cc1c[nH]c2ccccc12)NC(=O)[C@@H](N)Cc1ccccc1)[C@@H](C)O)C(=O)N[C@@H](CCCCN)C(=O)N[C@H](C(=O)N[C@@H](CCC(N)=O)C(=O)N[C@@H](C)C(=O)N[C@@H](CCCCN)C(=O)N[C@@H](CCC(N)=O)C(=O)N1CCC[C@H]1C(=O)N[C@@H](C)C(=O)N[C@@H](CCCNC(=N)N)C(=O)N[C@@H](Cc1ccc(O)cc1)C(=O)N[C@@H](CCCNC(=N)N)C(=O)N[C@@H](CCCNC(=N)N)C(=O)N[C@@H](Cc1ccccc1)C(=O)N[C@@H](CS)C(=O)O)[C@@H](C)O` [10AN] (H-FWFTLIKTQAKQPARYRRFC-OH) here?
A: not due to toxicity
